From US20220280490A1, “TREATMENT OF FRAGILE X SYNDROME” (HEALX LTD, priority 2019, published 2022)

Experiments:
Assay type in all cases: in vivo, mouse
Conditions in all cases: 12 mg/kg ibudilast, compared with WT vehicle
Fmr1 KO2 mice [1] = experiment: Open field (hyperactivity)
From the text: (§1) Fmr1 knockout 2 (Fmr1 K02) mice were generated by deletion of the promoter and first exon of Fmr1. The Fmr1 KO2 it is both, protein and mRNA null. In this study we used Fmr1 KO2 and wild-type (WT) littermates generated on a C57BL/6J background and repeatedly backcrossed onto a C57BL/6J background for more than eight generations.
(§2) There were four treatment groups per compound in the study with 10 male mice used per treatment group (all at 8 weeks of age): Group 1: wild-type littermate mice treated with vehicle (WT-Veh), Group 2: Fmr1 KO2 mice treated with vehicle (KO-Veh), Group 3: Fmr1 KO2 mice treated with 12 mg/kg ibudilast (KO-ibudilast).
(§3) For experiments, all mice were tested once in the same apparatus. Prior to testing, mice were placed in the apparatus for some minutes before the experiment. […] We assessed weight loss, fur loss, walking, eyes open, eye discharges and general behavior.
The open-field apparatus was used to test hyperactivity. […] The number of squares entered by the whole body (locomotor activity) was counted. The movement of the mouse around the field was recorded with a video tracking device for 3 min (version NT4.0, Viewpoint).
(§4) Data were analyzed by one-way ANOVA with a Dunnett's multiple comparison post hoc test in which WT Vehicle group was used as reference and compared with all the other groups

Fmr1 KO2 mice [2] = experiment: Nesting
From the text: as §1, §2
as §3, with “experiment. The apparatus was cleaned with moist and dry tissues before testing each mouse.” for “experiment.”
The test was performed in individual cages. […] Mice were placed individually into the nesting cages 1 hr. before the dark phase, and the results were assessed the next morning. Nest building was scored on a 5 point scale. […]
as §4

Fmr1 KO2 mice [3] = experiment: Contextual fear conditioning
From the text: as §1, §2
For experiments, all mice were tested once in the same apparatus. Prior to testing, mice were placed in the apparatus for some minutes before the experiment. The apparatus was cleaned with moist and dry tissues before testing each mouse. The aim was to create a low but constant background mouse odor for all experimental subjects. Testers were blind to the genotype and treatment during all testing and data analysis. We assessed weight loss, fur loss, walking, eyes open, eye discharges and general behavior. […]
as §4

Fmr1 KO2 mice [4] = experiment: Three-chambered sociability task (social interaction)
From the text: as §1, §2
as §3, with “experiment. The apparatus was cleaned with moist and dry tissues before testing each mouse.” for “experiment.”
In the three-chambered sociability task, a subject mouse was evaluated for its exploration of a novel social stimulus (novel mouse). […] The time spent exploring the novel mice was scored as exploration ratio.
as §4

CC(C)C(=O)c1c(C(C)C)nn2ccccc12 [ibudilast, 2-methyl-1-(2-propan-2-ylpyrazolo[1,5-a]pyridin-3-yl)propan-1-one]
fully rescued: open field (hyperactivity, locomotor activity) (Fmr1 KO2 mice [1]) | nesting (nest building score) (Fmr1 KO2 mice [2]) | fear conditioning (freezing response) (Fmr1 KO2 mice [3]) | sociability (exploration ratio) (Fmr1 KO2 mice [4])
